Data taken from PMC4718634, “Murine GPRC6A Mediates Cellular Responses to L-Amino Acids, but Not Osteocalcin Variants” (PLoS ONE, 2016).
Bridge positions count the residues as written; N and C are the ends. Ends that are not written are not given here.

Legend:
[1] = system: STC-1 cell line; details: ref [22]; cited from earlier work
Excerpt: Given the range of OCN variants profiled, we propose that species and/or carboxylation status is unlikely to be a cause of the lack of activity in our assays. Other potential explanations are that the species of GPRC6A is critical or that HEK293 cells lack the necessary scaffolding and/or signalling proteins found in cells endogenously expressing GPRC6A. Unfortunately, human GPRC6A was not expressed at the cell surface in our cells, precluding a study of its pharmacology. However, we identified a range of immortalised murine entero-endocrine and pancreatic β-cell lines that express Gprc6a mRNA ...

[2] = system: GPRC6A; details: HEK293 cells recombinantly expressing GPRC6A; ref [8], [10]–[12]; cited from earlier work
Excerpt: Additional interest in GPRC6A has emerged due to several studies reporting that it mediates the metabolic and endocrine effects of the de-carboxylated form of the osteoblast-derived peptide, osteocalcin (OCN).

[3] = biological target: T1, mGPRC6A (mouse GPRC6A) (Mus musculus, UniProt Q8K4Z6); test: Ca^2+i mobilisation, FlpIn-TREx-HEK293-mGPRC6A cells; type: cell-based
T1 sequence (Q8K4Z6 21-928): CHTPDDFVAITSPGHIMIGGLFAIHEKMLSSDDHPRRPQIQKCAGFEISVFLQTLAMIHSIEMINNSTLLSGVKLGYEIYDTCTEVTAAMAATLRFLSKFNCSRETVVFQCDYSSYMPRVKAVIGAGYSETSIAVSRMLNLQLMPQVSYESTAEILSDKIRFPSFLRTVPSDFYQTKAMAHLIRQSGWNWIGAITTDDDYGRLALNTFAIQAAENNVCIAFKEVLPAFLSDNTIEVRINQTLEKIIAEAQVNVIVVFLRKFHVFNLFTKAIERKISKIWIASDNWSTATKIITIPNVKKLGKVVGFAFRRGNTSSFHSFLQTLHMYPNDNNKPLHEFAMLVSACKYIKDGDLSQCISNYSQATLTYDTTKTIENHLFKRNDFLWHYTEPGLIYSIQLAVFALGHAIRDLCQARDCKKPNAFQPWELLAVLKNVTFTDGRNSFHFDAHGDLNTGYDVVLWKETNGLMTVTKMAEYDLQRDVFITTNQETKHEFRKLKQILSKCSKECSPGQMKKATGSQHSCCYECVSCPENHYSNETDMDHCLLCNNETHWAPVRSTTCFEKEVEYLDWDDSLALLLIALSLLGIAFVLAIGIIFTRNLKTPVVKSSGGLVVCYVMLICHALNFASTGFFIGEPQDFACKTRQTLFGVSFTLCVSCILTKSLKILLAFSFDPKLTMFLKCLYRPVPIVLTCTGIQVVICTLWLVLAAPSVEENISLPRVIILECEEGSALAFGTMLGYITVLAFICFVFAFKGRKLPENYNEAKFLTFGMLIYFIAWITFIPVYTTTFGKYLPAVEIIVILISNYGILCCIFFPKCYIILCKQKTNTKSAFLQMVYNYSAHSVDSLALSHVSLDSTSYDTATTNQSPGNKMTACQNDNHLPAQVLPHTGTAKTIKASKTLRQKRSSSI
Description: pcDNA 5/FRT/TO constructs were isogenically integrated into a FlpIn-TREx-HEK293 cell line (Life Technologies). FlpIn-TREx-HEK293-mGPRC6A and FlpIn-TREx-HEK293-hGPRC6A cells were then selected using 600 μg/ml hygromycin and 5 μg/ml blasticidin and grown in culture medium consisting of Dulbecco’s Modified Eagle Medium (DMEM), supplemented with 10% (v/v) foetal bovine serum (FBS) at 37°C in 5% CO2 and were sub-cultured in a 1:3 ratio every 3–4 days. Cells were cultured overnight in the presence of 1 μg/ml tetracycline to induce GPRC6A expression. […] 48 h after transfection, cells were selected using 3 μg/ml puromycin and grown as above.
FlpIn-TREx-HEK293-mGPRC6A cells were seeded into T75 flasks at 70% confluency. Cells were transfected with 15μg of plasmid DNA (Gαq or GαqG66D) with Lipofectamine LTX according to manufacturer's instructions, then incubated for 24h at 37°C in 5% CO2. Cells were plated into 96-well plates (10^5 cells/well) and equilibrated at 37°C in 5% CO2 for 4-6h to adhere, whereupon cells were serum starved overnight at 37°C in 5% CO2. For the assay, cells were washed twice in Ca^2+ assay buffer (150 mM NaCl, 2.6 mM KCl, 1.2 mM MgCl2, 10 mM dextrose, 10 mM HEPES, 2.2 mM CaCl2, 0.5% (w/v) BSA and 4 mM probenecid; pH 7.4). Buffer was then replaced with Ca^2+ assay buffer containing 1μM Fluo-4-AM and incubated for 1h at 37°C in 5% CO2. Cells were washed twice more and replaced with Ca^2+ assay buffer at 37°C. Serial dilutions of test agonists were added by injection in a Flexstation™ (Molecular Devices) and fluorescence was measured at 485nm excitation and 520nm emission wavelengths. Agonist responses were normalised to the peak of response to 100 μM ATP.
(§1) Data for all HEK293 assays represent the mean ± SEM of at least three independent experiments (except cell impedance, n = 2). For GLP-1 release, the data represent mean ± SEM of three to five independent experiments (except for OCN, wash; n = 2). For insulin release assays, data represent the mean ± SEM of three independent experiments (except for islet studies; n = 2). Insulin release data were normalised to the response to vehicle in either low or high [glucose]. Statistical analysis for GLP-1 release data were performed by one-way ANOVA, followed by Sidak’s multiple comparisons test (treating wash / no wash datasets separately). Statistical analyses for insulin release data were performed by two-way ANOVA (with [glucose] and drug treatment as group variables), followed by Sidak’s multiple comparisons test. Where only high [glucose] groups were evaluated, statistical analysis was by one-way ANOVA followed by Sidak’s multiple comparisons test.

[4] = system: GPRC6A; parameters: method as in PMID 15576628; details: chimera with goldfish 5.24 receptor and full length GPRC6A; ref [1]; cited from earlier work
[5] = system: hC6A; details: ref [9] (supplement list); cited from earlier work
Excerpt: (§2) Supplement pone.0146846.s004.docx, table 1 | column: Functional assay

[6] = system: PC-3 cells; details: endogenous; ref [18] (supplement list); cited from earlier work
Excerpt: as §2

[7] = system: Unknown species GPRC6A; details: ref [11] (supplement list); cited from earlier work
Excerpt: as §2

[8] = system: mC6A; details: ref [18] (supplement list); cited from earlier work
Excerpt: as §2

[9] = system: 22RV1 / PC-3; details: endogenous; ref [9] (supplement list); cited from earlier work
Excerpt: as §2

[10] = system: TC6; details: endogenous; ref [11] (supplement list); cited from earlier work
Excerpt: as §2

[11] = system: mouse pancreatic islets; test: Insulin release from mouse pancreatic islets; type: cell-based; details: L-arginine 20 mM; *P < 0.05 vs Vehicle; n = 2; S3 Fig B
Description: Islets were collagenase-isolated from mice (10 x C57Bl/6; 12–13 weeks; Charles River) and incubated overnight in RPMI (with 10% FBS (v/v), 10 mM HEPES, 100 U/ml penicillin, 100 μg/ml streptomycin, sodium pyruvate and 10 mM glucose) at 37°C in 5% CO2. Islets were seeded into a 96-well plate (4 / well) in Kreb’s buffer containing 2.8 mM glucose and washed twice with the same buffer. 200 μl test drugs were added in Kreb’s buffer with the required concentration of glucose and incubated at 37°C in 5% CO2 for 90 min. The plate was centrifuged for 10 s at 200 g, supernatant recovered and insulin levels detected as described above. This protocol was approved by the IDRS (Institut de Recherches Servier) Institutional Animal Care and Use Committee.
as §1, with “Concentration-response data were analysed using a three or four parameter logistic function (Motulsky & Christopoulos, 2004) to generate estimates of agonist potency (LogEC50). Data” for “Data”

de-carboxylated OCN: de-carboxylated form of the osteoblast-derived peptide, osteocalcin (YLYQWLGAPVPYPDPLEPRREVCELNPDCDELADHIGFQEAYRRFYGPV; disulfide 23-29 (inferred); not fully specified; printed as YLYQWLGAPVPYPDPLEPRREVCELNPDCDELADHIGFQEAYRRFYGPV-NH2/-COOH; ends not checked; UniProt P02818 52-100, looked up)
GLP-1 release [1]: evoke GLP-1 release
ERK1/2 phosphorylation [2]: can stimulate cAMP accumulation or ERK1/2 phosphorylation
cAMP accumulation [2]: can stimulate cAMP accumulation or ERK1/2 phosphorylation

N=C(N)NCCC[C@H](N)C(=O)O [L-arginine]
EC50 [3]: 15.8 µM
potency at murine GPRC6A (calcium and inositol phosphate, words) ([3]; calcium mobilisation and inositol phosphate accumulation, Discussion): most potent agonists
rank order of potency, Ca^2+ mobilisation ([3]; co-expressing GαqG66D, Fig 1D): L-ornithine > L-arginine = L-lysine
agonist response of GPRC6A [4]: mediates responses to L-amino acids
pERK1/2 response [5]: pERK1/2 – response to Ca^2+, ZnCl2, OCN, Arginine, Testosterone-BSA
pERK1/2 response [6]: pERK1/2 – response to Testosterone, L-Arg
pERK1/2 response [7]: pERK1/2 - response to Ca^2+, L-Arg, OCN.
cAMP response [8]: cAMP – response to Testosterone, L-Arg pERK1/2 – response to Testosterone
PSA, Runx2 expression response [9]: pERK1/2 – response to Ca^2+, ZnCl2, OCN, Arginine, Testosterone-BSA Proliferation – response to Ca^2+, OCN PSA, Runx2 expression – response to OCN, Arg, R1881 Chemotaxis (22RV1) – response to Ca^2+, OCN
pERK1/2 response [9]: pERK1/2 – response to Ca^2+, ZnCl2, OCN, Arginine, Testosterone-BSA Proliferation – response to Ca^2+, OCN PSA, Runx2 expression – response to OCN, Arg, R1881 Chemotaxis (22RV1) – response to Ca^2+, OCN
pERK1/2, pPKD1 response [10]: pERK1/2, pPKD1 – response to OCN, L-Arg
glucose-sensitive insulin secretion, L-arginine [11]: significantly increased GSIS
